The target of data set [1] is T1, human insulin receptor isoform B (IR-B) (Homo sapiens, UniProt P06213).
T1 construct: expressed in transfected cells; host or cells: IR-B cells (IGF-IR null mouse fibroblasts overexpressing human IR-B)
The data set is described as follows: Competition binding assay with europium-labelled insulin on solubilized, immunocaptured IR-B. To be noted: even at 10^−5 M concentration; 16 h at 4 °C, n ≥ 3. The protocol:
(§1) IGF-IR and IR-B were solubilized from cells using lysis buffer (20 mM HEPES, 150 mM NaCl, 1.5 mM MgCl2, 10% (v/v) glycerol, 1% (v/v) Triton X-100, 1 mM EGTA (pH 7.5)) for 1 h at 4 °C, and lysates were centrifuged for 10 min at 3500 rpm. Solubilized IGF-1R or IR-B (100 µL) was used to coat each well of a white Greiner Lumitrac 600 plate previously coated with 24–31 anti-human IGF-1R antibody or 83-7 anti-human IR antibody. […] Wells were washed three times with 20 mM Tris, 150 mM NaCl, 0.1% (v/v) Tween 20, and then DELFIA enhancement solution (100 µL) was added. Time-resolved fluorescence was measured with 340 nm excitation and 612 nm emission filters using a Victor X4, 2030 Multilabel Reader (Perkin Elmer). All assays were repeated at least 3 times with 3 technical replicates each, except for the IlO1_i1 peptide binding IGF-IR, where 2 assays were conducted. Mean IC50 values were calculated using the statistical software package Prism v9.0.0 (GraphPad Software) after curve fitting with a nonlinear regression (one-site) model.

Another data set has as its target T2, human IGF-1R (Homo sapiens, UniProt P08069).
T2 construct: expressed in transfected cells; host or cells: P6 cells (BALB/c3T3 mouse fibroblasts overexpressing IGF-IR)
The data set is described as follows: Competition binding assay with europium-labelled IGF-I on solubilized, immunocaptured IGF-1R. To be noted: 16 h at 4 °C, n = 2 assays. The protocol:
as §1

A further data set has as its system rKV1.2. As to the kind of experiment: Two-electrode voltage-clamp on Xenopus oocytes expressing KV1.2. The conditions noted are these: 8 µM peptide, Xenopus laevis oocytes, 18–22 °C, n ≥ 3. The format is cell-based, rat. An excerpt:
(§2) For the expression of KV channels (mammalian rKV1.2, hKV1.3, rKV2.1, hKV3.1, rKV4.2, hKV7.2/hKV7.3, hKV10.1, hERG and Shaker IR from the fruit fly Drosophila melanogaster), NaV channels (mammalian rNaV1.2, rNaV1.3, rNaV1.4, hNaV1.5, rNaV1.6, hNaV1.7, BgNaV from the cockroach Blattella germanica, as well as the auxiliary subunits rβ1, hβ1), and the hCaV3.1 channel in Xenopus oocytes, the linearized plasmids were transcribed using the T7 or SP6 mMESSAGE-mMACHINE transcription kit (Ambion, Carlsbad, CA, USA). The harvesting of stage V–VI oocytes from an anaesthetized female Xenopus laevis frog was described previously and was in compliance with the regulations of the European Union (EU) concerning the welfare of laboratory animals as declared in Directive 2010/63/EU. The use of X. laevis oocytes was approved by the Animal Ethics Committee of the KU Leuven with the licence number P186/2019. […]
(§3) Two-electrode voltage-clamp recordings were performed at room temperature (18–22 °C) using a Geneclamp 500 amplifier (Molecular Devices, Downingtown, PA, USA) controlled by a pClamp data acquisition system (Axon Instruments, Union City, CA, USA). Whole cell currents from oocytes were recorded 1–7 days after injection. […]

In the next data set the test system is hKV1.3. The data set is described as follows: Two-electrode voltage-clamp on Xenopus oocytes expressing KV1.3. The class given is cell-based, human. To be noted: 8 µM peptide, Xenopus laevis oocytes, 18–22 °C, n ≥ 3.
From the text: as §2, §3
(Two-electrode voltage clamp holds a large cell at a set potential and records current.)

The subject of another data set is hKV3.1. The data set is described as follows: Two-electrode voltage-clamp on Xenopus oocytes expressing KV3.1. The class given is cell-based, human. The conditions noted are these: 8 µM peptide, Xenopus laevis oocytes, 18–22 °C, n ≥ 3.
From the text: as §2, §3

Another data set has as its system KV11.1 (hERG). As to the kind of experiment: Two-electrode voltage-clamp on Xenopus oocytes expressing KV11.1 (hERG). The conditions noted are these: human, Xenopus laevis oocytes expressing KV11.1 (hERG), pH 7.4, 8 µM peptide, 18–22 °C, n ≥ 3, read-out: Inhibitory activity on KV11.1 (hERG) current. The class given is cell-based.
From the text: as §2, §3

Another data set deals with rNaV1.4. The data set is described as follows: Two-electrode voltage-clamp on Xenopus oocytes expressing NaV1.4. The format is cell-based, rat. The conditions noted are these: 8 µM peptide, Xenopus laevis oocytes, 18–22 °C, n ≥ 3.
From the text: as §2, §3

Positions of bridges follow the written chain, without caps; N, C: chain ends. Chains are numbered I, II in the order given. No end group written: not given here.

T1 sequence (P06213 28-758 limits assumed): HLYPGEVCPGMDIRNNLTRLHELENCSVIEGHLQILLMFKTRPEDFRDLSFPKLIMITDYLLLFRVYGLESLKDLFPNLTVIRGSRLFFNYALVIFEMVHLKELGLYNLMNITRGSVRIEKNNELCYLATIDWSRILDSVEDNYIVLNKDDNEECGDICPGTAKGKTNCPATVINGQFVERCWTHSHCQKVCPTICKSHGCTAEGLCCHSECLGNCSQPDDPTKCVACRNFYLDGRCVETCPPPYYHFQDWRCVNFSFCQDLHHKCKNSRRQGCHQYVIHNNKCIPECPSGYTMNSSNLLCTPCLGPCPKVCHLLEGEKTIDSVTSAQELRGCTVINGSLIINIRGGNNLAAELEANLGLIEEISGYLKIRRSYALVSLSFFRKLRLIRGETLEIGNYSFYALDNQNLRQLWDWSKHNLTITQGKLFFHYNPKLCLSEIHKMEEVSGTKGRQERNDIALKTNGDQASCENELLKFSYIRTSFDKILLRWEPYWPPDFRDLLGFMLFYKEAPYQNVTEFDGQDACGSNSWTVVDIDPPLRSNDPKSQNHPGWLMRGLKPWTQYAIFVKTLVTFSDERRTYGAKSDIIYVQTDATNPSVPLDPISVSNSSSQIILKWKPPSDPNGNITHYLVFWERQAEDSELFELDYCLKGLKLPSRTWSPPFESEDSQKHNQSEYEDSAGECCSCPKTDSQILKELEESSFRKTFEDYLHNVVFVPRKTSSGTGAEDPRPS
T1 sequence (P06213 763-1382 partner limits assumed): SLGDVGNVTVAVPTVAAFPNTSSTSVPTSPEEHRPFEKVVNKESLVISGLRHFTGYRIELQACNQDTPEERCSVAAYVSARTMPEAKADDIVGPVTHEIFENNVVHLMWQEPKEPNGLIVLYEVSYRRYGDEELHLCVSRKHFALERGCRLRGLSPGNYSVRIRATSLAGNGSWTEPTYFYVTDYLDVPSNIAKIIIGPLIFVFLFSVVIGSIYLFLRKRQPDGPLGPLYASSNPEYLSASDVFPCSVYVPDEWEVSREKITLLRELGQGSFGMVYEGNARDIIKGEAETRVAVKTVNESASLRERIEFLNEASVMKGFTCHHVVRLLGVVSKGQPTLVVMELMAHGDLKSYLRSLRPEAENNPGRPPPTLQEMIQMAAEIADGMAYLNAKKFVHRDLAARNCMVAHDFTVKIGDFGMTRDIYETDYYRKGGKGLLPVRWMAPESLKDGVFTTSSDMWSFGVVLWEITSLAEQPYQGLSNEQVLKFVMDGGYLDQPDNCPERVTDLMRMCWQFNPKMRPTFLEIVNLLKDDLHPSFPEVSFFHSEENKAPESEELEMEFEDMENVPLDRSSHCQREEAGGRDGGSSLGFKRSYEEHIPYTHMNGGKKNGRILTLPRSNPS
T2 sequence (P08069 31-736 limits assumed): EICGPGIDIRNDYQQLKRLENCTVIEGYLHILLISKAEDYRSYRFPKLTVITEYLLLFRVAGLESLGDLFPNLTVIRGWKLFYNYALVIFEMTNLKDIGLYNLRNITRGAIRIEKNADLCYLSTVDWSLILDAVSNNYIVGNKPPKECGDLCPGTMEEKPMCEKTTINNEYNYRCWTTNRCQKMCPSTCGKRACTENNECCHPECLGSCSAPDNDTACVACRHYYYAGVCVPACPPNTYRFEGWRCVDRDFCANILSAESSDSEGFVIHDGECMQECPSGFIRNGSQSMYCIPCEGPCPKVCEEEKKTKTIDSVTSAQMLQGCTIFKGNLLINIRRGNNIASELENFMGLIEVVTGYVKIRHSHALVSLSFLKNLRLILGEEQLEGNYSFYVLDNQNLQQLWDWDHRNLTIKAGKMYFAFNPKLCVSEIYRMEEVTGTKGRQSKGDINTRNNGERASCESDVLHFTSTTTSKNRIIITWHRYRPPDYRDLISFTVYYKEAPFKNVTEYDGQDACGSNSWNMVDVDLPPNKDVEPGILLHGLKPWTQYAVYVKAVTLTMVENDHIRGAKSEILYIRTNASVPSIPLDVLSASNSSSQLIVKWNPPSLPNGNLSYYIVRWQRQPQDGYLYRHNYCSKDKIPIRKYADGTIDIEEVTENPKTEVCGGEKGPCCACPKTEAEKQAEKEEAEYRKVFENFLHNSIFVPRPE
T2 sequence (P08069 741-1367 partner limits assumed): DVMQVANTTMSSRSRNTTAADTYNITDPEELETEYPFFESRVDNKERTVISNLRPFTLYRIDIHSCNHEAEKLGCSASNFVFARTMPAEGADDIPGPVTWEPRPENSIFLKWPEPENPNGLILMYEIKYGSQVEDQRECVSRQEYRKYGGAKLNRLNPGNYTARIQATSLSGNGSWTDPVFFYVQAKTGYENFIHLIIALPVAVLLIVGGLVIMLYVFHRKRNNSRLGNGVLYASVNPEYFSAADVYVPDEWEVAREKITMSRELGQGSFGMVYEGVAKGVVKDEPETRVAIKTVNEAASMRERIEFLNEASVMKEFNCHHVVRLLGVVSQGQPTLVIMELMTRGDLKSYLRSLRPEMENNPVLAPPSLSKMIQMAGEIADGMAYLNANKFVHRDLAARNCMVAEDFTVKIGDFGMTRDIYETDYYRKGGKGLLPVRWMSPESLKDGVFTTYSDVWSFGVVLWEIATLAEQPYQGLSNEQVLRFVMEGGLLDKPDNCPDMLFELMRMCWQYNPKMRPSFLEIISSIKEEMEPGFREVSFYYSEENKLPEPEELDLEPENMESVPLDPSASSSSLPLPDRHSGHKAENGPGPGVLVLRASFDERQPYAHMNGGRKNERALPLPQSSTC

With “I: INESPQTNIDYRICGDQITQKYTELCGNPAAG / II: TDIVEECCAEGCKAEEVKEYCI (disulfide I:14-II:8, I:26-II:21, II:7-II:12) [IlO1_i1]”, the “Ability to compete with europium-labelled insulin bound to IR-B” value in data set [1] is “unable to compete”. At human IGF-1R, the “Ability to compete with europium-labelled IGF-I binding to the IGF-1R” value is on record as “did not compete”. The “Inhibitory activity on KV1.2 current” value in the data set with rKV1.2 stood at 3.6 ± 1.9%. Besides, the “Inhibitory activity on KV1.3 current” value in the data set with hKV1.3 is on record as 11.9 ± 0.9%. Also, the “Inhibitory activity on KV3.1 current” value with hKV3.1 was 12.7 ± 2.6%. Further, in the data set with KV11.1 (hERG), the inhibition at 8 µM stood at 30.5 ± 1.6%. Moreover, the “Inhibitory activity on NaV 1.4 current” value in the data set with rNaV1.4 turned out to be 14.2 ± 2.2%.

The record behind these values is article PMC8698791, “Identification, Synthesis, Conformation and Activity of an Insulin-like Peptide from a Sea Anemone” (Biomolecules, 2021).
